Values after ≈ are worked out from the molar mass of the structure shown.

In general, EC50 refers to the concentration that produces a half-maximal response. A word on the IC50: it is the concentration that gives 50% inhibition. What is called Papp A→B is the apparent permeability from the apical to the basolateral side of a cell layer. A lower Papp A→B goes with slow passage. Broadly, the Papp B→A is how fast a substance crosses the layer from the basolateral side. As usually defined, the Kd is the free concentration of one partner at which half of the binding sites on the other are occupied at equilibrium, for simple one-to-one binding. Low values mean tighter binding, high ones weaker binding.

One data set concerns the target KasA (Mycobacterium tuberculosis, UniProt P9WQD9). The data set can be described thus: Microscale thermophoresis (MST) binding assay. More on the design: species or system M. tuberculosis. The note with it: for EC50: read-out: EC50 (KasA interaction).
The test system of data set [1] is mycolic acid biosynthesis. The data set is classed as cell-based, M. tuberculosis.
The subject of data set [2] is M. tuberculosis. The note with it: cited from earlier work.
Data set [3] has as its system M. tuberculosis. The data set can be described thus: microbe, parasite or virus in culture. The class given is cell-based. The conditions noted are these: for whole-cell activity (in words): SAR relative to DG167; for increase in potency over DG167: relative to DG167.
Data set [4] relates to M. tuberculosis. The data set can be described thus: Killing studies using CFU measurements. The class given is cell-based.
In a further data set the target is CYP2C19 (Homo sapiens, UniProt P33261). The data set can be described thus: Cytochrome P450 (CYP) inhibition. The class given is in vitro ADME.
A short description of data set [5]: Mouse pharmacokinetic studies (plasma, LC-MS/MS). The class given is in vivo. The conditions noted are these: mice. The procedure: DG1167 levels in plasma were measured by LC-MS/MS in electrospray positive-ionization mode (ESI+) on a Sciex Qtrap 4000 triple-quadrupole mass combined with an Agilent 1260 HPLC using Analyst software. […] Multiple-reaction monitoring (MRM) of parent/daughter transitions in electrospray positive-ionization mode (ESI+) was used to quantify DG167. […] Extracts were vortexed for 5 minutes and centrifuged at 4000 RPM for 5 minutes. The supernatants were analyzed by LC-MS. Verapamil IS was sourced from Sigma-Aldrich.

Data set [6] in a line: Dose escalation and drug tolerability in mice. The data set is classed as in vivo.
Description: All animal experiments were conducted in compliance with and approved by the Institutional Animal Care and Use Committee of the New Jersey Medical School, Rutgers University.
The mice were weighed and observed daily. Their behavior, drinking and feeding patterns, and feces were monitored and recorded. Upon necropsy, liver, gall bladder, kidney and spleen pathology were observed as well.
Another data set concerns M. tuberculosis H37Rv. The data set can be described thus: RNAseq transcriptional profiling. The data set is classed as cell-based. The note with it: single drug, 10× MIC, 4 h.
The nature of the next data set: Kinetic solubility. The note with it: pH 7.4 phosphate-buffered saline (PBS).
The nature of another data set: Caco-2 permeability. The note with it: human. (In general: Caco-2 monolayers are a common model of the intestinal barrier.)
For another data set, the system named is CYP enzymes. The data set can be described thus: Cytochrome P450 (CYP) inhibition. The note with it: CYP enzymes except CYP2C19.
The nature of data set [7]: Mouse liver microsome (MLM) stability. In general terms: Liver microsomes are vesicles of endoplasmic reticulum, rich in cytochrome P450 enzymes.
In another data set the test system is M. abscessus. The data set can be described thus: MIC against nontuberculous mycobacteria.
Another data set concerns M. fortuitum. The data set can be described thus: MIC against nontuberculous mycobacteria.
The next data set relates to M. avium. The data set can be described thus: MIC against nontuberculous mycobacteria.
A further data set relates to M. smegmatis. The data set can be described thus: MIC against nontuberculous mycobacteria.
For a further data set, the system named is M. marinum. The data set can be described thus: MIC against nontuberculous mycobacteria.
In data set [8] the test system is M. tuberculosis. The data set can be described thus: Lung CFU in infected mice (FIG. 10, PMID: 25421483). The data set is classed as in vivo. The conditions noted are these: compared to INH and vehicle only.

KasA, sequence (P9WQD9 whole entry): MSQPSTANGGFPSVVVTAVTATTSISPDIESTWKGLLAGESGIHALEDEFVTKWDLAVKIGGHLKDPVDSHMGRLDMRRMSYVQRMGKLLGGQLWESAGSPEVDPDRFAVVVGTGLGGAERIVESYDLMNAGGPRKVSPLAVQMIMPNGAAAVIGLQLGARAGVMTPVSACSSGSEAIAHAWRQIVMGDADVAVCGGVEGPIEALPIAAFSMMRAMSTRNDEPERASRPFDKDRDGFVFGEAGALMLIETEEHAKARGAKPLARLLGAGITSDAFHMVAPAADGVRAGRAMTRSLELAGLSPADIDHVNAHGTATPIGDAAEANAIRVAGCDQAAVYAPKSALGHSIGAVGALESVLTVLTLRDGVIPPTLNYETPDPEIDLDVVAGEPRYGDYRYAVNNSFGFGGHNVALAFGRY
CYP2C19, sequence (P33261 whole entry, species assumed): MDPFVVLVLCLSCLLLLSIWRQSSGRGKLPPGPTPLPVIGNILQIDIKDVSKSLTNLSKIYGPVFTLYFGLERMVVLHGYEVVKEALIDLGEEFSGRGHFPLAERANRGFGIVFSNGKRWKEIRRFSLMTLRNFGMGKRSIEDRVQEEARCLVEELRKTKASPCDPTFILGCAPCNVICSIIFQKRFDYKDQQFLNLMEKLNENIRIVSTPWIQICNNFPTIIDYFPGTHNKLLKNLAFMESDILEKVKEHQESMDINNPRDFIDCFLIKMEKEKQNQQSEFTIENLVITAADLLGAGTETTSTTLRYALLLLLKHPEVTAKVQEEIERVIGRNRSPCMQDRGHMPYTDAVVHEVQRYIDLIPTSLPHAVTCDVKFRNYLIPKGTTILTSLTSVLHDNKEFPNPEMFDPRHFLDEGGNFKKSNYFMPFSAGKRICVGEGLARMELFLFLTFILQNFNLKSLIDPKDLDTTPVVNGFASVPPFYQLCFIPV

As to `CCCCS(=O)(=O)Nc1ccc2cn[nH]c2c1` [Example 1, N-(1H-indazol-6-yl)butane-1-sulfonamide], the EC50 at KasA amounted to 1740 ± 221 nM. Moreover, in data set [1], the “inhibition of mycolic acid biosynthesis” value is recorded as “did not show any inhibition”.
With `CC12C[C@@]34C=CC(=O)[C@@](C)(CCC(=O)Nc5c(O)ccc(C(=O)O)c5O)C3[C@H](CC1C4)O2` (stereo partly drawn) [platensimycin], the “whole-cell activity in M. tuberculosis” value in the data set on M. tuberculosis [2] is 27 µM.
`CCCCCCS(=O)(=O)Nc1ccc2cnn(C)c2c1` [Example 12, N-(1-methyl-1H-Indazol-6-yl)hexane-1-sulfonamide]: the “whole-cell activity (in words)” value with M. tuberculosis [3] is “inactive”.
For the compound `CCCCS(=O)(=O)Nc1ccc2cnn(C)c2c1` [DG167, N-(1-methyl-1H-indazol-6-yl)butane-1-sulfonamide], on KasA, the EC50 came out at 131 ± 18.2 nM. For the same compound, the “accumulation of FAS-I products” value in data set [1] is recorded as “caused accumulation of C16-C26 short-chain fatty-acids”. Besides, the “reduction of viable colony-forming units (CFU)” value in the data set on M. tuberculosis [4] (10× or 20× MIC, over seven days) amounted to 2 log 10. On CYP2C19, this compound gave an IC50 of 12000 nM. For the same compound, in data set [5] (IV 5 mg/kg), the “half-life (t1/2)” value came to 19.8 min. In addition, the “AUC [0-t]” value was 1751.25 ng·h/mL in [5] (IV 5 mg/kg, 5% DMA/40% PEG300/55% D5W); 8083.96 ng·h/mL in data set [5] (PO 25 mg/kg, 0.5% CMC/0.5% Tween 80, plasma); 8083.96 h*ng/m in [5] (single oral dose 25 mg/kg, plasma). In addition, in [5] (single oral dose 25 mg/kg), the “time plasma levels maintained above the MIC” value is on record as “over 4 hours”. Also, the “tolerability, dose escalation” value in data set [6] (50 and 100 mg/kg, monitored 8 hours) was “well tolerated”; in [6] (higher doses (250, 500 mg/kg)), “heavy breathing, hunched posture and decreased activity”. Besides, the “dose tolerability for 5 d” value in data set [6] (5 d, DG167 50 or 100 mg/kg, or DG167 100 mg/kg with INH 25 mg/kg) is reported as “did not show any behavioral changes or weight loss”. Moreover, the “gene expression change (in words)” value in the data set on M. tuberculosis H37Rv is on record as “strongly induced expression of kasA, kasB, acpM genes, the iniBAC operon”. Besides, in “Kinetic solubility”, the kinetic solubility turned out to be 324 µM (≈ 86.6 µg/mL). Besides, the Papp A→B in “Caco-2 permeability” worked out at 71.8 ×10⁻⁶ cm/s. For the same compound, the Papp B→A in “Caco-2 permeability” is 45.6 ×10⁻⁶ cm/s. Further, the “CYP inhibition (in words)” value with CYP enzymes was “did not significantly inhibit”. For the same compound, the “MLM t1/2” value in data set [7] (in the absence of NADPH) is > 300 min; in data set [7] (mouse liver microsomes), 10.1 min. In addition, the MIC against M. abscessus, in the data set with M. fortuitum, in the data set on M. avium, in the data set with M. smegmatis and against M. marinum was > 100 µM throughout.
For `C=C/C(C)=C/[C@@]1(C)SC(=O)C(C)=C1O` [thiolactomycin], in the data set on M. tuberculosis [2], the “whole-cell activity in M. tuberculosis” value was 142 µM.
Take `[2H]C([2H])([2H])n1ncc2ccc(NS(=O)(=O)CCCC)cc21` [Example 29, N-(1-(methyl-d3)-1H-indazol-6-yl)butane-1-sulfonamide]: the “MLM t1/2” value in data set [7] (mouse liver microsomes) was 16.8 min.
`CCCCS(=O)(=O)Nc1ccc2[nH]nc(C)c2c1` [Example 41, N-(3-methyl-1H-indazol-5-yl)butane-1-sulfonamide]: the “improvement over DG167 in MIC / whole-cell activity” value in the data set with M. tuberculosis [3] is 2 ×. In addition, on KasA, the Kd came to 46.5 ± 18.7 nM.
`NNC(=O)c1ccncc1` [INH, isoniazid, reference compound]: in the data set on M. tuberculosis [4] (10× MIC of each drug), the “killing pattern (in words)” value is given as “rapid reduction of viable CFU followed by rapid re-growth”. In the data set on M. tuberculosis H37Rv, the “gene expression change (in words)” value is “strongly induced expression of kasA, kasB, acpM genes, the iniBAC operon”.
With `[2H]C([2H])([2H])n1ncc2ccc(NS(=O)(=O)CCCCC)cc21` [Example 30, N-(1-(methyl-d3)-1H-indazol-6-yl)pentane-1-sulfonamide], in the data set with M. tuberculosis [3], the “whole-cell activity (in words)” value is “increased the activity over the parent by twofold” and the “increase in potency over DG167” value is listed as 2 fold.
Regarding `CCCCNC(=S)Nc1ccc2cnn(C)c2c1` [Example 33, 1-Butyl-3-(1-methyl-1H-indazol-6-yl)thiourea], the MIC in the data set with M. tuberculosis [3] (Mycobacterium tuberculosis, whole-cell) was determined as 3.1 µM (≈ 0.813 µg/mL). Further, in the data set on M. tuberculosis [3], the “whole-cell activity (in words)” value was “loss of activity”.
In the case of `CCCCS(=O)(=O)N(C)c1ccc2cnn(C)c2c1` [Example 32, N-methyl-N-(1-methyl-1H-indazol-6-yl)butane-1-sulfonamide], the “whole-cell activity (in words)” value in the data set with M. tuberculosis [3] is on record as “loss of activity”.
On to `Cc1n[nH]c2ccc(NS(=O)(=O)CCCCF)cc12` [Example 43, 4-Fluoro-N-(3-methyl-1H-indazol-5-yl)butane-1-sulfonamide], for which, in the data set with M. tuberculosis [8], the “M. tuberculosis colony-forming units in the lungs” value is “reduction of M. tuberculosis colony-forming units in the lungs”.
In the case of `CCCCCS(=O)(=O)Nc1ccc2cnn(C)c2c1` [Example 11, N-(1-methyl-1H-indazol-6-yl)pentane-1-sulfonamide], in the data set on M. tuberculosis [3], the “whole-cell activity (in words)” value is “increased the activity over the parent by twofold” and the “increase in potency over DG167” value is given as 2 fold.

The values above are taken from patent US12060330B2, “Therapeutic indazoles” (priority 2017, dated 2024).
